Laboratory results as given in PMC7409196, “Investigating the Effect of Esterification on Retinal Pigment Epithelial Uptake Using Rhodamine B Derivatives” (Translational Vision Science & Technology, 2020).

Assays:
[1] = Stability of dyes in media (HPLC); format: in vitro ADME; details: 100 nM in MEM-Nic + 1% FBS, 37°C, HPLC at 0 and 2 hours
Method: Fresh 100 nM RBBE solutions were prepared in MEM-Nic + 1% FBS with 0.2% Tween20. HPLC chromatograms were recorded immediately after making solutions and after incubation at 37°C for 2 hours to determine stability of the ester linkage in media.

[2] = test system: ARPE-19-nic cells; test: De-esterification in cells (HPLC of cell extracts); format: in vitro ADME, human; details: confluent cells treated with 100 nM for 30 minutes and 2 hours
Method: For cell work, confluent ARPE-19-nic cells were treated with 100 nM dye solutions for 30 minutes and 2 hours at 37°C, 5% CO2 in a 12-well plate. After washing the cells with PBS three times, cells were extracted using cell scrappers with the aid of methanol. The cell suspension in methanol was sonicated in a water bath for 5 minutes and was centrifuged at 16,000 g for 15 minutes. The supernatant was transferred to an HPLC vial and methanol was evaporated under a stream of nitrogen. The sample was resuspended in 40 µL of methanol before injecting into the HPLC system. Twenty microliters of the samples were injected with an autosampler. Separation was conducted by 1.1 mL/min isocratic elution with a methanol (80%) and 10 mM sodium phosphate buffer (pH 5.8, 20%) mobile phase on a 250 × 4.6-mm (5 µm) C18 column (Pinnacle II; Restek, Bellefonte, PA) maintained at 40°C. The samples were monitored at an emission wavelength of 580 nm (λex = 550 nm) using a FLD detector and analyzed with Agilent Chemstation software.

[3] = test system: ARPE-19-nic cells; test: Co-localization with Mito-GFP (confocal and high-resolution live cell imaging); format: cell-based, human; details: 25 nM, 30 minutes; for cell penetration and association with mitochondria, high-resolution airy scan imaging: live cells
Method: ARPE-19-nic cells were seeded at 1.5 × 10^5 cells per well density in 8-well Millicell EZ slides with MEM-Nic + 1% FBS. After 24 hours (60%–70% confluency), cells were transfected with CellLight Mitochondria-GFP using manufacturer's recommended protocol. For co-localization experiments carried out at subconfluent conditions, media containing CellLight Mito-GFP were removed, washed with DPBS and cells were treated with 25 nM dye solutions prepared in MEM-Nic + 1% FBS at 37°C, 5% CO2. After 30 minutes, media containing dye solution was removed and cells were washed three times with DPBS. Cells were mounted with DPBS for confocal laser scanning microscope imaging. An 63× oil lens was used to image cells in green and red channels. For experiments carried out at confluent conditions, transfection was carried out at 60% to 70% confluency and cells were grown to 100% confluency. A 20× lens was used to generate images to compare staining efficiencies.
To analyze RBBE and its association with mitochondria, high-resolution live cell imaging was conducted using a Zeiss LSM880 inverted confocal microscope equipped with a GaAsP detector. All the images were obtained by using a 63× oil objective (30°C oil) in three channels (blue, green, and red) at room temperature. ARPE-19-nic cells were grown in Lab-Tek II chambered no 1.5 German coverslip system for 24 hours before treating with CellLight Mito-GFP overnight followed by a 30-minute treatment of 25 nM RBBE in growth media. After treating the cells with RBBE, cells were washed twice with PBS and nuclei were stained employing a Hoechst stain (1/2000 diluted from a 10 mg/mL stock solution in media) for 10 minutes at room temperature. Subsequently cells were washed twice with PBS and cells were imaged in phenol red free CO2 independent Leibovitz's (1×) media.

[4] = test system: isolated mitochondria from ARPE-19-nic cells; test: Quantification of dye amounts in isolated mitochondria; format: cell-based, human; details: 100 nM, 30 minutes; t-test P < 0.0001
[5] = test system: ARPE-19-nic cells; test: Cellular uptake: intracellular and extracellular fluorescence quantification; format: cell-based, human
[6] = test system: ARPE-19-nic cells; test: Accumulation experiment with repeated dye additions; format: cell-based, human; details: 25 nM added 1×, 2× or 3×, 2 hours each
Method: Black clear bottomed Costar 96-well plates were pretreated with 0.039 mg/mL collagen I solution prepared in sterilized deionized water (50 µL per well) for 1 hour, aspirated and washed with 100 µL of DPBS. Confluent ARPE-19-nic cells were harvested and seeded at approximately 70,000 cells per well and grown until the cells reached 100% confluency. At the time of confluence (day 0), media were removed from the cells and treated with 100 µL of freshly made dye solutions in MEM-Nic + 1% FBS in amber Eppendorf tubes in dark. After the appropriate incubation time, cells were washed thrice with DPBS, lysed with Qiagen RLT buffer with 0.2% Tween20, and fluorescence was recorded at λex/ λem = 552 nm/558 nm. […] Extracellular levels were measured by transferring 75 µL of the media sitting on top of the cells to a new black, clear bottomed 96-well plate. To the transferred media, 25 µL of Qiagen RLT lysis buffer with 0.2% Tween20 were added and fluorescence was measured as mentioned elsewhere in this article. Intracellular amounts were determined by adding 100 µL of Qiagen RLT lysis buffer with 0.2% Tween20 to the cells that were washed thrice with DPBS. Fluorescence measurements were carried as described. […] After the incubation period, cells were washed three times with DPBS and fluorescence was measured from a plate reader. […]

stability of the ester in media [1]	fluorescence from isolated mitochondria compared with RB-treated cells [4]	cell permeability ([5]; 25 nM)	cell penetration after 24 hours incubation ([5]; 24 hours incubation)	intracellular level after multiple doses (accumulation) [6]	Compound	conversion into the parent form (de-esterification) inside cells [2]	cell penetration and association with mitochondria, high-resolution airy scan imaging [3]	intracellular versus extracellular location of dye ([5]; 25 nM, 2 hours, fluorescence)	co-localization with Mito-GFP labelled mitochondria ([3]; confocal laser scanning microscopy)
stable in media up to 2 hours	increased fluorescence activity				CCCCOC(=O)c1ccccc1-c1c2ccc(=[N+](CC)CC)cc-2oc2cc(N(CC)CC)ccc12 [RBBE, Rhodamine B Butyl Ester]	did not convert into its parent form within 2 hours	able to effectively penetrate into the cells and associated with mitochondria		
		cell impermeable	not able to penetrate into the cells	showed no accumulation	rhodamine B [RB]		did not observe any RB	primarily located in the extracellular space	not detected within the cells
